From PubChem BioAssay AID1963447 (Molecular Pharmacology Branch, DTP, NCI, 2024)

System: 885512-296-R-J2-PDC complex spheroid growth, % test/control
Assay: Anticancer human tumor 885512-296-R-J2-PDC patient-derived breast carcinoma cell line growth inhibition [Asc]
Conditions: for IC50: curve of first compound; for viability, T/C: stronger effect = lower value
How it was run: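 Stromal components (HUVEC and hMSC) are co-assembled with the cancer cells into multicellular spheroids. Drugs are then added singly or paired, at concentrations falling by half-log increments from a clinically achievable maximum, capped at 10 microM without known Cmax.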

[1] = second compound 0.1 µM, first compound 0.00949 µM
[2] = second compound 0.1 µM, first compound 0.03 µM
[3] = second compound 0.1 µM, first compound 0.0949 µM
[4] = second compound 0.1 µM, first compound 0.3 µM
[5] = second compound 0.316 µM, first compound 0.00949 µM
[6] = second compound 0.316 µM, first compound 0.03 µM
[7] = second compound 0.316 µM, first compound 0.0949 µM
[8] = second compound 0.316 µM, first compound 0.3 µM
[9] = second compound 1 µM, first compound 0.00949 µM
[10] = second compound 1 µM, first compound 0.03 µM
[11] = second compound 1 µM, first compound 0.0949 µM
[12] = second compound 1 µM, first compound 0.3 µM
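Note: spheroids exposed to compounds for seven days.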
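Throughout, for viability, T/C: 100% = DMSO vehicle control wells.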

SMILES: CCN1C(C(=O)NC23CCC(C(=O)O)(CC2)CC3)C(c2cccc(Cl)c2F)C2(C(=O)Nc3cc(Cl)ccc32)C12CCCCC2 (stereo not given) + Cc1c(S(C)(=O)=O)c(-c2cc(F)cc(N3CCN(c4ccc(NS(=O)(=O)c5ccc(NC(CCN6CCC(C(=O)OCCCP(=O)(O)O)CC6)CSc6ccccc6)c(S(=O)(=O)C(F)(F)F)c5)cc4)CC3)c2)c(-c2ccc(Cl)cc2)n1C(C)C
- IC50 (second compound 0.1 µM): 2460 nM
- IC50 (second compound 0.316 µM): 1820 nM
- IC50 (second compound 1 µM): 2370 nM
- IC50 (second compound 3.16 µM): > 3000 nM
- IC50 (second compound 10 µM): > 3000 nM
- viability, T/C [1]: 90.8%
- viability, T/C [2]: 96.3%
- viability, T/C [3]: 99.4%
- viability, T/C [4]: 72.8%
- viability, T/C (second compound 0.1 µM, first compound 0.949 µM): 73.8%
- viability, T/C (second compound 0.1 µM, first compound 3 µM): 45.1%
- viability, T/C [5]: 86.7%
- viability, T/C [6]: 101%
- viability, T/C [7]: 99.6%
- viability, T/C [8]: 80.8%
- viability, T/C (second compound 0.316 µM, first compound 0.949 µM): 64.4%
- viability, T/C (second compound 0.316 µM, first compound 3 µM): 39.8%
- viability, T/C [9]: 103%
- viability, T/C [10]: 79.3%
- viability, T/C [11]: 85%
- viability, T/C [12]: 71.9%
- viability, T/C (second compound 1 µM, first compound 0.949 µM): 67.1%
- viability, T/C (second compound 1 µM, first compound 3 µM): 42%
- viability, T/C (second compound 3.16 µM, first compound 0.00949 µM): 109%
- viability, T/C (second compound 3.16 µM, first compound 0.03 µM): 100%
- viability, T/C (second compound 3.16 µM, first compound 0.0949 µM): 98.6%
- viability, T/C (second compound 3.16 µM, first compound 0.3 µM): 95.4%
- viability, T/C (second compound 3.16 µM, first compound 0.949 µM): 78%
- viability, T/C (second compound 3.16 µM, first compound 3 µM): 52.4%
- viability, T/C (second compound 10 µM, first compound 0.00949 µM): 129%
- viability, T/C (second compound 10 µM, first compound 0.03 µM): 101%
- viability, T/C (second compound 10 µM, first compound 0.0949 µM): 119%
- viability, T/C (second compound 10 µM, first compound 0.3 µM): 124%
- viability, T/C (second compound 10 µM, first compound 0.949 µM): 112%
- viability, T/C (second compound 10 µM, first compound 3 µM): 79.6%

SMILES: NC(=O)C(=Cn1cnc(-c2cc(C(F)(F)F)cc(C(F)(F)F)c2)n1)c1cncnc1 + CNC(C)C(=O)NC1CN(S(=O)(=O)c2cccc(S(=O)(=O)N3CCC4CCC(C(=O)NC(c5ccccc5)c5ccccc5)N4C(=O)C(NC(=O)C(C)NC)C3)c2)CCC2CCC(C(=O)NC(c3ccccc3)c3ccccc3)N2C1=O
- IC50 (second compound 0.01 µM): 48.8 nM
- IC50 (second compound 0.0316 µM): 48.7 nM
- IC50 (second compound 0.1 µM): 49 nM
- IC50 (second compound 0.316 µM): 49.9 nM
- IC50 (second compound 1 µM): 48.9 nM
- viability, T/C (second compound 0.01 µM, first compound 0.000949 µM): 96.4%
- viability, T/C (second compound 0.01 µM, first compound 0.003 µM): 95.6%
- viability, T/C (second compound 0.01 µM, first compound 0.00949 µM): 92.8%
- viability, T/C (second compound 0.01 µM, first compound 0.03 µM): 80.9%
- viability, T/C (second compound 0.01 µM, first compound 0.0949 µM): 7.83%
- viability, T/C (second compound 0.01 µM, first compound 0.3 µM): 1.03%
- viability, T/C (second compound 0.0316 µM, first compound 0.000949 µM): 96.1%
- viability, T/C (second compound 0.0316 µM, first compound 0.003 µM): 99%
- viability, T/C (second compound 0.0316 µM, first compound 0.00949 µM): 102%
- viability, T/C (second compound 0.0316 µM, first compound 0.03 µM): 80.4%
- viability, T/C (second compound 0.0316 µM, first compound 0.0949 µM): 8.3%
- viability, T/C (second compound 0.0316 µM, first compound 0.3 µM): 0.82%
- viability, T/C (second compound 0.1 µM, first compound 0.000949 µM): 102%
- viability, T/C (second compound 0.1 µM, first compound 0.003 µM): 103%
- viability, T/C [1]: 110%
- viability, T/C [2]: 81.8%
- viability, T/C [3]: 7.31%
- viability, T/C [4]: 1.06%
- viability, T/C (second compound 0.316 µM, first compound 0.000949 µM): 106%
- viability, T/C (second compound 0.316 µM, first compound 0.003 µM): 110%
- viability, T/C [5]: 107%
- viability, T/C [6]: 83.7%
- viability, T/C [7]: 7.6%
- viability, T/C [8]: 0.59%
- viability, T/C (second compound 1 µM, first compound 0.000949 µM): 101%
- viability, T/C (second compound 1 µM, first compound 0.003 µM): 108%
- viability, T/C [9]: 110%
- viability, T/C [10]: 81.8%
- viability, T/C [11]: 6.87%
- viability, T/C [12]: 0.55%

SMILES: O=C(c1ccc(F)c(F)c1Nc1ccc(I)cc1F)N1CC(O)([C@@H]2CCCCN2)C1 + CNC(C)C(=O)NC1CN(S(=O)(=O)c2cccc(S(=O)(=O)N3CCC4CCC(C(=O)NC(c5ccccc5)c5ccccc5)N4C(=O)C(NC(=O)C(C)NC)C3)c2)CCC2CCC(C(=O)NC(c3ccccc3)c3ccccc3)N2C1=O
- IC50 (second compound 0.01 µM): 94 nM
- IC50 (second compound 0.0316 µM): 107 nM
- IC50 (second compound 0.1 µM): 112 nM
- IC50 (second compound 0.316 µM): 126 nM
- IC50 (second compound 1 µM): 159 nM
- viability, T/C (second compound 0.01 µM, first compound 0.00316 µM): 92.1%
- viability, T/C (second compound 0.01 µM, first compound 0.01 µM): 80.5%
- viability, T/C (second compound 0.01 µM, first compound 0.0316 µM): 59%
- viability, T/C (second compound 0.01 µM, first compound 0.1 µM): 50.2%
- viability, T/C (second compound 0.01 µM, first compound 0.316 µM): 37.5%
- viability, T/C (second compound 0.01 µM, first compound 1 µM): 15.1%
- viability, T/C (second compound 0.0316 µM, first compound 0.00316 µM): 98.3%
- viability, T/C (second compound 0.0316 µM, first compound 0.01 µM): 84.3%
- viability, T/C (second compound 0.0316 µM, first compound 0.0316 µM): 78%
- viability, T/C (second compound 0.0316 µM, first compound 0.1 µM): 48%
- viability, T/C (second compound 0.0316 µM, first compound 0.316 µM): 32%
- viability, T/C (second compound 0.0316 µM, first compound 1 µM): 16.6%
- viability, T/C (second compound 0.1 µM, first compound 0.00316 µM): 99.5%
- viability, T/C (second compound 0.1 µM, first compound 0.01 µM): 95.8%
- viability, T/C (second compound 0.1 µM, first compound 0.0316 µM): 78.6%
- viability, T/C (second compound 0.1 µM, first compound 0.1 µM): 47.8%
- viability, T/C (second compound 0.1 µM, first compound 0.316 µM): 35.1%
- viability, T/C (second compound 0.1 µM, first compound 1 µM): 15.9%
- viability, T/C (second compound 0.316 µM, first compound 0.00316 µM): 102%
- viability, T/C (second compound 0.316 µM, first compound 0.01 µM): 99.5%
- viability, T/C (second compound 0.316 µM, first compound 0.0316 µM): 82.5%
- viability, T/C (second compound 0.316 µM, first compound 0.1 µM): 53.8%
- viability, T/C (second compound 0.316 µM, first compound 0.316 µM): 31.4%
- viability, T/C (second compound 0.316 µM, first compound 1 µM): 16.5%
- viability, T/C (second compound 1 µM, first compound 0.00316 µM): 103%
- viability, T/C (second compound 1 µM, first compound 0.01 µM): 96.2%
- viability, T/C (second compound 1 µM, first compound 0.0316 µM): 89.7%
- viability, T/C (second compound 1 µM, first compound 0.1 µM): 60.9%
- viability, T/C (second compound 1 µM, first compound 0.316 µM): 32.8%
- viability, T/C (second compound 1 µM, first compound 1 µM): 16.8%
